≈ marks a conversion by molar mass, not a printed value. Bounds are passed on as bounds.

In test [1] the test system is engineered strain of Escherichia coli harboring CTX-M15. Briefly: microbe, parasite or virus in culture. Format: cell-based. As to conditions: Escherichia coli, read-out: Microbiological Activity (MIC in mg/L), E. coli DH5α/pLBII-CTX-M15, engineered strain producing CTX-M15.
Test [2] concerns the target E. coli PBP1a (Escherichia coli (strain K12), UniProt P02918). Briefly: Radioligand competition binding assay with 14C-labeled boronic acid probe, PBP1a. The text has this:
To determine the ability of boronic acid-based test PBP inhibitors to bind Penicillin Binding Proteins (PBPs), a radio-labelled boronic acid PBP inhibitor
[drawing 751] was used in competition binding assays to determine boronic acid PBP inhibitor binding to PBP1a or PBP1b from Escherichia coli. PBP1a and PBP1b were purified as described previously (Bertsche, U.; et al., J. Biol. Chem. 2005, 280 (45), 38096-38101; Born, P.; et al., J. Biol. Chem. 2006. 281 (37), 26985-26993). To establish assay conditions for competition binding, an enzyme titration/saturation binding experiment was performed. Saturation binding was performed in a buffer comprised of 20 mM Tris (pH 7.5), 500 mM NaCl and 0.1% (v/v) TritonX-100, with PBP1a/PBP1b at a final concentration of 0.1 μM and Compound A at final concentrations ranging from 0-100 μM. Mixtures were incubated for 60 minutes, then applied to Zeba Spin Desalting columns or plates (ThermoFisher Scientific) and centrifuged at 1000-1500×g for 2 minutes. The flow through, containing PBP bound with Compound A, was recovered and 100 μL mixed with 5 mL of UltimaGold liquid scintillation cocktail (Perkin Elmer), and the radioactivity counted using a Beckman Coulter LS 6500 Multipurpose scintillation counter. PBP binding of Compound A approached saturation at 20 μM of ^14C-labeled probe. The competition binding assay was validated using the beta-lactam ampicillin, with Compound A at a final concentration of 20 μM, PBP1a/PBP1b at a final concentration of 0.1 μM. PBP1a/PBP1b was incubated with ampicillin in a 96-well microplate for 60 minutes, then Compound A was added and the mixtures incubated for an additional 60 minutes. The mixtures were then applied to Zeba Spin desalting plates and centrifuged at 1000×g for 2 minutes. The flow through was recovered and 100 μl mixed with 5 ml of UltimaGold liquid scintillation cocktail and the radioactivity counted. […] Binding assays with boronic acid PBP inhibitors were performed in an identical fashion. The potency of boronic acid PBP inhibitors was reported as the EC50 value.

Test [3] relates to E. coli DH5α empty pLBII vector control strain. The test can be described thus: microbe, parasite or virus in culture. Format: cell-based, Escherichia coli. As to conditions: Escherichia coli, read-out: Microbiological Activity (MIC in mg/L), E. coli DH5α/pLBII. In a few lines: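 MIC was the lowest concentration visibly free of growth after 16–20 h at 37 °C, against 5×10^5 CFU/mL of the empty-pLBII DH5α control strain. Twofold compound dilutions were made in cation-adjusted Mueller-Hinton broth.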

For test [4], the target named is E. coli PBP2 (Escherichia coli (strain K12), UniProt P0AD65). The test can be described thus: E. coli PBP2 Bocillin-FL fluorescence polarization competition binding assay. As to conditions: fluorescence polarization competition binding with Bocillin-FL; read-out: E. coli K12 PBP2 Potency (EC50). From the text: To determine the ability of boronic acid-based test PBP inhibitors to bind Penicillin Binding Proteins (PBPs), Bocillin-FL (fluorescently-labeled penicillin V; ThermoFisher Scientific) was used in a fluorescence polarization (FP) competition binding assay to assess inhibitor binding to PBP2, PBP3 or PBP4 from Escherichia coli. PBPs were cloned and purified as described previously (King, D. T, et al., ACS Infectious Diseases 2015, 1, 175-184). To establish assay conditions for competition binding, an enzyme titration/saturation binding experiment was initially performed. Bocillin-FL was prepared at 0.2 μM in a buffer comprised of 50 mM Hepes (pH 8.0), 300 mM NaCl and 5% (v/v) glycerol. Saturation binding was performed by mixing 40 μl of PBP solutions ranging in concentrations from 0-12 μM with 40 μl of the 0.2 μM Bocillin-FL solution, in individual wells of a black 384-well microplate. FP was measured immediately upon mixing (Excitation, 490 nm; Emission, 520 nm; g-factor, 0.96), using a Cytation3 (BioTek) microplate reader and measured continuously for up to 120 minutes. […] For all PBPs the FP signal approached saturation with 1.5 μM PBP (final concentration). […] Assays (80 μl final volume) were performed with PBPs at a final concentration of 1.5 μM, Bocillin-FL at 0.1 μM and beta-lactam concentrations that ranged from 0-1000 μM. […] Bocillin-FL was added and the FP immediately measured for 60 minutes (90 minutes for PBP2). The beta-lactam potency was reported as the concentration of beta-lactam required to reduce binding of Bocillin-FL by […] (EC50). […] Binding assays for boronic acid PBP inhibitors were performed in an identical fashion.
Chain of E. coli PBP2 (P0AD65 whole entry): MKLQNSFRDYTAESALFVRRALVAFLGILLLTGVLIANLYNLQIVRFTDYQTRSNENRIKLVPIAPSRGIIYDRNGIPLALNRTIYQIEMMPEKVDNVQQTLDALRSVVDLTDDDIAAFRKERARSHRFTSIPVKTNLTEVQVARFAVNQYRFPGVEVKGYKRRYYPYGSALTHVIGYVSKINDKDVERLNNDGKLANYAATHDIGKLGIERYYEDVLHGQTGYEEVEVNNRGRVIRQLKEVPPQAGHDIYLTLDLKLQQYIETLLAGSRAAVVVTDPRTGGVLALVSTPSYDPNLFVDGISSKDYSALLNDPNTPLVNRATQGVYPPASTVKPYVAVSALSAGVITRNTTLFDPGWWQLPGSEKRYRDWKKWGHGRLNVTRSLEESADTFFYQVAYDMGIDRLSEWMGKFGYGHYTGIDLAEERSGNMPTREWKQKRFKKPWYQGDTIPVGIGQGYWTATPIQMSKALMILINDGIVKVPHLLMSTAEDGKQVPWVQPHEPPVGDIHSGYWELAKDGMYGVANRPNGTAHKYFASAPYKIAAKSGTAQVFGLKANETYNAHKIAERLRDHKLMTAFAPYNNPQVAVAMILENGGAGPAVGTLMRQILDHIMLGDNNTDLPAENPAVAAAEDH
(In fluorescence polarisation assays a small probe gives low polarisation when free and higher when bound to something large.)

Test [5] has as its target E. coli PBP3 (Escherichia coli (strain K12), UniProt P0AD68). The test can be described thus: E. coli PBP3 Bocillin-FL fluorescence polarization competition binding assay. In outline:
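Competition against 0.1 μM Bocillin-FL for binding to 1.5 μM purified protein, read by fluorescence polarization for 60 min. Compounds tested from 0 to 1000 μM; EC50 taken as the concentration reducing probe binding.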

Chain of E. coli PBP3 (P0AD68 whole entry): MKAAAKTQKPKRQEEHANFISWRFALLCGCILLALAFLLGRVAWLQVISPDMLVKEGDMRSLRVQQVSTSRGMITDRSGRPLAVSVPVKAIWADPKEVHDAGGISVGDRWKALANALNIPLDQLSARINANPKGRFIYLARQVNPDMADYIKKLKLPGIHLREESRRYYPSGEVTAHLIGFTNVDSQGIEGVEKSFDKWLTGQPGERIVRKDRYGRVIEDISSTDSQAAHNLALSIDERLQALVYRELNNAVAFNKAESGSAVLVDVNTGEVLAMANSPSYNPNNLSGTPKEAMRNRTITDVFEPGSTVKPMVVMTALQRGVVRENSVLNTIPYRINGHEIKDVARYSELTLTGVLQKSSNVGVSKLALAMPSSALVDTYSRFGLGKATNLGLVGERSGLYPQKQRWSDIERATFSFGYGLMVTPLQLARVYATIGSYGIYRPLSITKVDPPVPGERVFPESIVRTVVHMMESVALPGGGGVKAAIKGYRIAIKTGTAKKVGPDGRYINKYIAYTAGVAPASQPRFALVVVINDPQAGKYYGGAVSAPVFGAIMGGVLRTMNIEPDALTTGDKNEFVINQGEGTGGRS
Chain of E. coli PBP1a (P02918 whole entry): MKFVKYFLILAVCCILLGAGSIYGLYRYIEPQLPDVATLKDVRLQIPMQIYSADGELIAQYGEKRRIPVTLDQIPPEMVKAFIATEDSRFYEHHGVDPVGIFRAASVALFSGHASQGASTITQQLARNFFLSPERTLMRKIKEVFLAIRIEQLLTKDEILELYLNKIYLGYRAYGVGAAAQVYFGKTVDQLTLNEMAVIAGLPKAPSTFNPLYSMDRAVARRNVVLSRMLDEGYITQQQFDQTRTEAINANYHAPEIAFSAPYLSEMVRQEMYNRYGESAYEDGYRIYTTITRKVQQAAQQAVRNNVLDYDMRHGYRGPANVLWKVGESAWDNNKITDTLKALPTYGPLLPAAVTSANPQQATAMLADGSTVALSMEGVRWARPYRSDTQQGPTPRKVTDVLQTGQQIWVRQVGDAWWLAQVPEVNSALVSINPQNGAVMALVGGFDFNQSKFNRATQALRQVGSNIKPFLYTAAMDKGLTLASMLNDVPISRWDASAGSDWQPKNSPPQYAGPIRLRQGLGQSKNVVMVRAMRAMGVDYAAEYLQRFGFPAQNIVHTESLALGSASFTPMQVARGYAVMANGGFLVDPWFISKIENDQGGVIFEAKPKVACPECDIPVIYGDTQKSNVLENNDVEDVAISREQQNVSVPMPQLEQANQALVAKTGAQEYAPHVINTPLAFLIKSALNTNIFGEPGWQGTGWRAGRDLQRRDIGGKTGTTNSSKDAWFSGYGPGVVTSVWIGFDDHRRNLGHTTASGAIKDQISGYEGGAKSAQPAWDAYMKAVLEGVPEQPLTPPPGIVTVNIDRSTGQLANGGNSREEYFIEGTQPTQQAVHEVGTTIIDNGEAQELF

As usually defined, the EC50 is the concentration at which the effect is half-maximal. On to `CCN1CCN(C(=O)NC(C(=O)N[C@H]2Cc3cccc(C(=O)O)c3OB2O)c2ccc(OC)nc2)C(=O)C1=O` (stereo partly drawn) [Example 34, (3R)-3-(2-(4-ethyl-2,3-dioxopiperazine-1-carboxamido)-2-(6-methoxypyridin-3-yl)acetamido)-2-hydroxy-3,4-dihydro-2H-benzo[e][1,2]oxaborinine-8-carboxylic acid], for which the MIC in test [1] and in test [3] was 128 to 256 mg/L (≈ 237 to 475 µM) each time. Besides, the EC50 in test [2] is below 10 µM; in test [4], above 500 µM; in test [5] it was 30 to 500 µM.

The values above are taken from patent US12173018B2, “Penicillin-binding protein inhibitors” (priority 2018, dated 2024).
